# Patent publication US4870074A, “Substituted benzamide derivatives, for enhancing gastrointestinal motility” (priority 1986, dated 1989)
# Columns and labels:
# gastric emptying = assay: Test 1: gastric emptying enhancing activity (phenol red test meal); format: in vivo, Male Wistar rats; conditions: po, 0.25 h; 2.0 mg/kg p.o., 60 min before test meal, rat; read-out: Gastric emptying enhancing activity, Increase (emptying rate vs control)
# Protocol: The test was carried out according to the method of Scarpignato et al. [cf. Arch. int. Pharmacodyn., 246, 286-294 (1980)].
# Male Wistar rats, weighing 130-150 g, were fasted for 18 hours before experimentation, and 1.5 ml of a test meal (phenol red 0.05% in a 1.5% aqueous methylcellulose solution) was given by gastric tube. Fifteen minutes after administration of the meal the stomach was removed and the amount of phenol red remaining in the stomach was measured.
# The test compounds, dissolved or suspended in a 0.5% tragacanth solution, were orally administered 60 minutes before administration of the test meal. The rate of gastric emptying was calculated according to the amount of phenol red remaining in the stomach, and the activity of the test compounds was expressed in terms of increase in the emptying rate from the control. The number of animals used was 5 for the control and each dose of metoclopramide hydrochloride monohydrate and 4 for each dose of the other test compounds.
# central nervous system = assay: Test 3: effect on the central nervous system (CNS effect), Irwin observation; conditions: 100 mg/kg, p.o., mouse, 2 hours observation
# Protocol: Male ddY mice, weighing 18-25 g, were used in groups of 3 animals each. […] Psychopharmacologia, 13, 222-227 (1968)], comprehensive observation of behavioral and physiologic states were carried out for 2 hours after the oral treatment with 100 mg/kg of the test compound, dissolved or suspended in a 0.5% tragacanth solution. Liability of the test compounds to the central nervous system effect was expressed with the following marks, according to the total sum of potencies for the individually analyzed effects, such as catalepsy, ptosis, hypolocomotin, etc.
smiles,measurement,setting,value
C=CCCOc1cc(N)c(Cl)cc1C(=O)NCC1CN(Cc2ccccc2)CCO1 (centres unmarked) [Example 119],change in vivo at 2 mg/kg,gastric emptying,48.4%
same,CNS effect,central nervous system,-
